# Values of other authors as cited in US20230165842A1, “NEW USES” (priority 2020, published 2023).
# Read-outs that look alike come from different tables or passages of the source.
# How the values were obtained:
# [1] = test system: OC43
# [2] = test system: OC43; settings: maximal across all concentrations
# [3] = test system: SARS-CoV-2
# [4] = test system: SARS-CoV-2; remark: listed apart in the source
# [5] = test system: SARS-CoV-2; settings: concentration dependent; data not shown
# [6] = test system: patients hospitalized with COVID-19; settings: With Calcifediol Treatment (n = 50)
# [7] = test system: SARS-CoV-2; settings: Vero cells; 2 h pre-treatment; vs DMSO control; p<0.0001
# [8] = test system: COVID-19 cases; settings: conclusion for the named statins
# [9] = test system: dysgeusia in COVID positive patients
# [10] = test system: Calu-3
# [11] = test system: SARS-CoV-2; settings: Vero E6
# [12] = test system: Vero E6
# [13] = test system: SARS-CoV-2; settings: Calu-3
# [14] = test system: SARS-CoV-2; settings: Vero E6; for IC50: 2 h pre-treatment, 24 h
# [15] = test system: SARS-CoV-2; settings: treated 24 hours prior to infection; read-out: IC50 in Calu-3
# [16] = test system: human coronavirus (HCoV)-229E; settings: MRC5 cells
# [17] = test system: SARS-CoV-2; settings: Vero-E6; MOI 0.005
# [18] = test system: SARS-CoV-2 Spike pseudotyped virus; settings: ACE2h HEK293T cells; Control = 1
# [19] = test system: hospitalised Covid-19 patients
# [20] = test system: Vero E6 cells; settings: Vero E6
# [21] = test system: SARS-CoV-2; set-up: Reducing Viral propagation: concentration or dose not given beside the values; settings: Vero E6; MOI=0.0005
# [22] = test system: COVID-19 ARDS patients
# [23] = test system: COVID-19-induced pulmonary fibrosis
# [24] = test system: Covid positive patients
# [25] = test system: adults with confirmed SARS-CoV-2 infection
# [26] = six weeks after initiation of therapy
compound,measurement,setting,value
"CS(=O)(=O)CCNCc1ccc(-c2ccc3ncnc(Nc4ccc(OCc5cccc(F)c5)c(Cl)c4)c3c2)o1 [Compound 187, lapatinib]",OC43 viral replication,[1],strongly inhibited
same,Max % Inhibition of Viral Killing,[2],63.99%
same,SARS-CoV-2 viral replication,[3],strongly inhibited
same,toxicity,"[3]; at doses readily achievable in human tissues, data not shown",without any toxicity
same,inhibited SARS-CoV-2 replication,[3]; data not shown,"over 50,000 fold"
"OCc1c[nH]c2ccccc12 [Compound 110, indole-3-carbinol]",SARS-CoV-2-induced CPE,[4]; 16.67 and 5.56 μM,not affected
same,reduced the SARS-CoV-2-induced CPE,"[4]; Vero E6, 50 μM, 72 h post-infection, vs DMSO",about 60%
same,virus yield reduction,[4]; at the various concentrations tested,2 to 4 log
NCCOB(c1ccccc1)c1ccccc1 [compound 16],inhibition of SARS-CoV-2 replication,[5],significantly inhibit
saracatinib [Compound 112],OC43 viral replication,[1],inhibition also observed
same,Max % Inhibition of Viral Killing,[2],22.48%
same,SARS-CoV-2 viral replication,[3],inhibition also observed
"C=C1CC[C@H](O)C/C1=C/C=C1\CCC[C@]2(C)[C@@H]([C@H](C)CCCC(C)(C)O)CC[C@@H]12 [Calcifediol, calcifediol]","Not requiring ICU, n (%)",[6],49 (98)
same,"Requiring ICU, n (%)",[6],1 (2)
maraviroc [Compound 170],decrease in viral load,[7],30.7 fold
"CC(C)c1nc(N(C)S(C)(=O)=O)nc(-c2ccc(F)cc2)c1/C=C/[C@@H](O)C[C@@H](O)CC(=O)O [Compound 64, rosuvastatin]",mortality in patients infected with COVID-19,[8],may reduce mortality
"C[C@]12C=CC(=O)C=C1CC[C@H]1[C@@H]3C[C@@H](O)[C@](O)(C(=O)CO)[C@@]3(C)C[C@H](O)[C@@]12F [Compound 72, triamcinolone]",bitter identified: NO (patients),"[9]; Cases (n = 60), day 5",7
same,bitter identified: YES (patients),"[9]; Cases (n = 60), day 5",53
same,salt identified: NO (patients),"[9]; Cases (n = 60), day 5",10
same,salt identified: YES (patients),"[9]; Cases (n = 60), day 5",50
same,sour identified: NO (patients),"[9]; Cases (n = 60), day 5",10
same,sour identified: YES (patients),"[9]; Cases (n = 60), day 5",50
same,sweet identified: NO (patients),"[9]; Cases (n = 60), day 5",5
same,sweet identified: YES (patients),"[9]; Cases (n = 60), day 5",55
same,recovery of sense of smell taste,[9]; all anosmia and dysgeusia cases,recovered their sense of smell taste within a week
same,improved for bitter,"[9]; oral paste, fifth day",83.33%
same,improved for salty taste,"[9]; oral paste, fifth day",83.33%
same,improved for sour taste,"[9]; oral paste, fifth day",83.34%
same,improved for sweet,"[9]; oral paste, fifth day",91.67%
"C[C@H]1[C@H](OC(=O)CCC(=O)O)O[C@@H]2O[C@@]3(C)CC[C@H]4[C@H](C)CC[C@@H]1[C@@]24OO3 [Compound 145, artesunate]",CC50,[10],> 100 µM
same,IC50,[11],53.1 µM
same,Selectivity Index (SI),[11],>1.885
same,CC50,[12],> 100 µM
same,IC50,[13],1.76 µM
same,Selectivity Index (SI),[13],>56.82
"COc1ccc2nc3cc(Cl)ccc3c(Nc3cc(CN4CCCC4)c(O)c(CN4CCCC4)c3)c2n1 [Reference Compound 4, pyronaridine]",CC50,[10]; Calu-3,43.1 µM
same,IC50,[11],1.08 µM
same,Selectivity Index (SI),[11],34.22
same,CC50,[12]; Vero E6,37.1 µM
same,IC50,[13],6.41 µM
same,Selectivity Index (SI),[13],6.718
"CCN(CC)CCCC(C)Nc1ccnc2cc(Cl)ccc12 (centres unmarked) [Reference Compound 1, chloroquine]",IC50,[14]; MOI 0.004,42 µM
same,IC50,[14]; MOI 0.01,46.8 µM
same,IC50,[15],69.2 µM
same,EC50,[16],5 µM
same,reduction of the viral titer,[16],60%
same,EC50,[17],1.36 µM
"CC(C)c1c(C(=O)Nc2ccccc2)c(-c2ccccc2)c(-c2ccc(F)cc2)n1CC[C@@H](O)C[C@@H](O)CC(=O)O [Compound 8, atorvastatin]",mortality in patients infected with COVID-19,[8],may reduce mortality
"Clc1ccc2c(c1)CCc1cccnc1C2=C1CCNCC1 [Compound 80, desloratadine]",pseudotype entry (mean),[18],0.3
"COc1cc(Nc2ncc(F)c(Nc3ccc4c(n3)N(COP(=O)(O)O)C(=O)C(C)(C)O4)n2)cc(OC)c1OC [Compound 35, fostamatinib]",primary endpoint of safety,"[19]; Phase II, oral twice-daily plus SOC for 14 days",met the primary endpoint of safety
same,improvement in clinical status,[19]; by day 15 and 29,superior to placebo
same,outcome of intubated patients on mechanical ventilation,[19]; two patients receiving drug,improved in seven days and were off the ventilator
same,chances of occurrence of serious adverse events,[19]; vs placebo,halved
same,number of days in the ICU,[19]; vs seven in the placebo group,three
same,deaths,[19]; vs three deaths in the placebo arm,No deaths
"O=C1NCN(c2ccccc2)C12CCN(CCCC(c1ccc(F)cc1)c1ccc(F)cc1)CC2 [Compound 158, fluspirilene]",Selectivity Index (SI),[14]; MOI 0.004,9.61
same,IC50,[14]; MOI 0.004,6.36 µM
same,Selectivity Index (SI),[14]; MOI 0.01,>5.71
same,IC50,[14]; MOI 0.01,5.32 µM
same,CC50,[20]; listed as MOI 0.004,30.3 µM
same,CC50,[20]; listed as MOI 0.01,30.3 µM
"O=C(Nc1ccc([N+](=O)[O-])cc1Cl)c1cc(Cl)ccc1O [Reference Compound 3, niclosamide]",IC50,[21],17 µM
same,Reducing Viral propagation,[21],>99%
"CCN(CCO)CCCC(C)Nc1ccnc2cc(Cl)ccc12 (centres unmarked) [Reference Compound 5, hydroxychloroquine]",CC50,[10]; Calu-3,> 100 µM
same,IC50,[11],1.07 µM
same,Selectivity Index (SI),[11],>93.55
same,CC50,[12]; Vero E6,> 100 µM
same,IC50,[13],103 µM
same,Selectivity Index (SI),[13],>0.972
same,decrease in viral load,[7],26.9 fold
"COc1cc([C@@H]2c3cc4c(cc3[C@@H](O[C@@H]3O[C@@H]5CO[C@@H](C)O[C@H]5[C@H](O)[C@H]3O)[C@H]3COC(=O)[C@H]23)OCO4)cc(OC)c1O [Compound 137, etoposide]","PaO2/FiO2 ratio improved, average","[22]; 11 patients, 50-150 mg/m^2",195%
same,patients fully recovered and discharged home,[22]; of 11 patients,Nine
same,patients needed mechanical ventilation,[22]; of 11 patients,Three
same,patients died,"[22]; of 11 patients, thrombotic complications",Two
"COC(=O)c1ccc2c(c1)NC(=O)/C2=C(\Nc1ccc(N(C)C(=O)CN2CCN(C)CC2)cc1)c1ccccc1 [Compound 134, nintedanib]",serum level of alanine aminotransferase (adverse event),"[23]; 300 mg/day oral, managed with reduction to 200 mg/day",became elevated
same,Ground-glass opacities of the lung (CT),[23]; FIG. 29-D,mildly attenuated without further progression of pulmonary fibrosis
same,respiratory condition and exercise tolerance,[23]; after three months of rehabilitation with drug and tapering of prednisolone,improved
same,other side effects,[23]; in vivo,No other side effects
same,vital capacity,[23]; [26],1.27 L
same,vital capacity per predicted,[23]; [26],61.7%
"COCCCC/C(=N\OCCN)c1ccc(C(F)(F)F)cc1 [Compound 34, fluvoxamine]",incidence of subsequent hospitalization,"[24]; 0 of 65, vs 12.5% with observation",0%
same,ongoing symptoms present at day 14,"[24]; 0 of 65, vs 60% with observation alone",0%
same,serious adverse events,[24]; 50 mg twice daily for 14 days,No serious adverse events
same,Respiratory Rate,"[24]; Day 1, N = 65",17.7 ± 2.9
same,Respiratory Rate,"[24]; Day 7, N = 65",12.9 ± 1.6
same,Hospitalized within 14 days (patients),[24]; N = 65,0
same,ICU care and/or Death (patients),[24]; N = 65,0
same,Symptoms at Day 14: 1-3 (patients),[24]; N = 65,0
same,Symptoms at Day 14: 4-6 (patients),[24]; N = 65,0
same,Symptoms at Day 14: None (patients),[24]; N = 65,65
same,Symptoms at Day 14: ≥7 (patients),[24]; N = 65,0
same,adverse events leading to early discontinuation,"[24]; human, in vivo",No adverse events led to early discontinuation
same,serious adverse event (number),"[25]; fluvoxamine group, placebo 6",1
same,other adverse events (number),"[25]; fluvoxamine group, placebo 12",11
same,"Absolute difference (95% CI), any nonzero value",[25]; fluvoxamine vs placebo,−8.3%
same,"Absolute difference (95% CI), clinical deterioration",[25]; fluvoxamine vs placebo,8.7%
same,"Absolute difference (95% CI), clinical status 0 (none)",[25]; fluvoxamine vs placebo,8.3%
same,"Absolute difference (95% CI), clinical status mean",[25]; fluvoxamine vs placebo,−0.22
same,"Clinical status on 7-point scale, mean (SD)",[25]; n = 80,0
same,"Clinical status on 7-point scale: 0 (none), No. (%)",[25]; n = 80,80 (100)
same,"Clinical status on 7-point scale: Any nonzero value, No. (%)",[25]; n = 80,0
same,"Primary end point Clinical deterioration (met both criteria), No. (%)","[25]; n = 80, 100 mg 3 times daily for 15 days",0
"NC1(c2ccc(-c3nc4ccn5c(=O)[nH]nc5c4cc3-c3ccccc3)cc2)CCC1 [Compound 173, mk-2206]",IC50,[21],0.09 µM
same,Reducing Viral propagation,[21],88%
"CC(=O)OCOC(=O)CN(CC(=O)OCOC(C)=O)c1ccccc1OCCOc1ccccc1N(CC(=O)OCOC(C)=O)CC(=O)OCOC(C)=O [compound 15, BAPTA-AM]",inhibition of SARS-CoV-2 replication,[5],significantly inhibit
"NCCCCNCCCN [Reference Compound 2, spermidine]",IC50,[21],149 µM
same,Reducing Viral propagation,[21],85%
